# Assay results from PubChem BioAssay (NCI).
# Several values for one entry are separate records, joined by “and”; a condition that tells them apart may be missing. Equal values may be shown once.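 Cultured in 96-well plates, cells were exposed to test compound for 48 hours across five concentrations. Abbreviation: GI50, concentration required for 50% inhibition of growth. At the TGI there is no net growth.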
# Legend:
# Assay in all cases: NCI anticancer screen, dose series, 48 h
# SW-620 colon = tested on: SW-620 colon
# NCI-H23 lung = tested on: NCI-H23 lung
# HT29 colon = tested on: HT29 colon
# TK-10 renal = tested on: TK-10 renal
# MDA-MB-435 = tested on: MDA-MB-435
# SN12C renal = tested on: SN12C renal
# MDA-MB-231 breast = tested on: MDA-MB-231 breast
# UO-31 renal = tested on: UO-31 renal
# HCC-2998 colon = tested on: HCC-2998 colon
# UACC-257 melanoma = tested on: UACC-257 melanoma
SMILES,GI50 (SW-620 colon) [µM],TGI (SW-620 colon),GI50 (NCI-H23 lung),TGI (NCI-H23 lung),GI50 (HT29 colon),TGI (HT29 colon),GI50 (TK-10 renal) [µM],TGI (TK-10 renal),GI50 (MDA-MB-435) [µM],TGI (MDA-MB-435),GI50 (SN12C renal) [µM],TGI (SN12C renal),GI50 (MDA-MB-231 breast) [µM],TGI (MDA-MB-231 breast) [µM],GI50 (UO-31 renal) [µM],TGI (UO-31 renal),GI50 (HCC-2998 colon) [µM],TGI (HCC-2998 colon),GI50 (UACC-257 melanoma) [µM],TGI (UACC-257 melanoma)
COc1cc(/C=C/C(=O)/C=C/c2cc(OC)c3c(c2)OCO3)cc2c1OCO2,3.38,> 100 µM,7.69 µM,> 100 µM,2.64 µM,6.7 µM,30.3,> 100 µM,1.92,4.22 µM,30.9,> 100 µM,7.89,> 100,5.77,> 100 µM,1.98,3.73 µM,3.52,41.9 µM
O=S(=O)(Nc1ccc(Br)cc1)c1ccc(-c2cnc(C3CC3)o2)cc1,0.785,12.3 µM,2.99 µM,15.1 µM,0.715 µM,15.9 µM,5.36,21.5 µM,0.239,0.646 µM,4.41,18.2 µM,3.77,17.8,2.41,15.7 µM,2.38,15.4 µM,10.5,27.5 µM
COC(=O)C1=C(O)C(C(=O)OC)C2CC(=O)CC1C2(C)C (stereo not drawn),,> 100 µM,,> 100 µM,,> 100 µM,,> 100 µM,,> 100 µM,,> 100 µM,,> 100,,> 100 µM,,> 100 µM,,> 100 µM
CC1=C([Se]CC(OC(=O)CC[Se]c2ccccc2)C(=O)NC(C)(C)C)C(=O)c2ccccc2C1=O (stereo not drawn),1.91,3.88 µM,1.56 µM,3.11 µM,1.96 µM,3.64 µM,1.99,3.62 µM,2.21,4.7 µM,1.67,3.13 µM,1.55,3.01,1.17,2.43 µM,1.76,3.2 µM,1.57,2.95 µM
C=C1CCC2C3(C)COC(C)(C)OC3CCC2(C)C1C/C=C1/C(=O)OCC1OC(C)=O (stereo not drawn),1.27,2.74 µM,4.34 µM,16.1 µM,1.89 µM,4.85 µM,5.24,16.3 µM,2.54,11.3 µM,5.95,22.6 µM,7.07,22.6,6.27,15.5 µM,15.2,28.8 µM,2.02,5.62 µM
Cc1c2cnccc2c(C)c2c1c1cc(C#N)ccc1n2C,0.0695,1.17 µM,0.172 µM,0.649 µM,0.0871 µM,1.05 µM,0.266,1.62 µM,0.271,0.899 µM,0.149,1.14 µM,0.237,1.1,0.137,0.869 µM,0.293,1.55 µM,0.207,0.788 µM
CCSCCCSCCSCC,,> 100 µM,,> 100 µM,,> 100 µM,,> 100 µM,,> 100 µM,,> 100 µM,,> 100,,> 100 µM,,> 100 µM,,> 100 µM
CCCN1C(=O)NC(=O)C(CC)(N2C(=O)c3c(F)c(F)c(F)c(F)c3C2=O)C1=O (stereo not drawn),1.3,2.82 µM,2.17 µM,5.77 µM,1.4 µM,3.62 µM,2.29,6 µM,2.25,6.52 µM,2.16,6.14 µM,1.99,4.59,1.63,4.32 µM,1.8,3.93 µM,2.99,8.63 µM
CC1CC(C)CC(C)C(O)/C(C#N)=C/C=C/CC(C2CCCC2C(=O)O)OC(=O)CC(O)C(C)C1 (stereo not drawn),0.0834,0.725 µM and 1.34 µM,0.0183 µM and < 0.0105 µM,0.0919 µM and 0.0221 µM,0.0644 µM and 0.0286 µM,0.574 µM and 0.321 µM,,0.089 µM and 0.432 µM,0.0281,0.0871 µM and 0.0731 µM,0.0342,0.342 µM and 0.727 µM,0.0193,0.0706,0.027,0.15 µM and 0.0217 µM,0.0297,0.102 µM and 0.0726 µM,0.0359,0.17 µM and 0.0491 µM
O=C(NCC1CC1)c1ccc(-c2cccc(C(=O)NC3CC3)c2)cc1,> 25,> 25 µM,> 25 µM,> 25 µM,> 25 µM,> 25 µM,> 25,> 25 µM,> 25,> 25 µM,> 25,> 25 µM,> 25,> 25,> 25,> 25 µM,> 25,> 25 µM,> 25,> 25 µM
O=[N+]([O-])c1ccccc1N=Nc1c(O)[nH]c2cccc(C(F)(F)F)c12,,> 100 µM,,88 µM,,> 100 µM,,> 100 µM,,40.7 µM,,73.8 µM,,91.3,,> 100 µM,,> 100 µM,,34.5 µM
CC1=C2C(=C[C@@](C)(CO)[C@@H]2OC(=O)N(C)CCN(C)C(=O)OC(C)(C)C)C(=O)[C@](C)(O)C12CC2,12.8,> 50 µM,2.08 µM,15.9 µM,2.32 µM,> 50 µM,13.6,35.2 µM,9.74,23.1 µM,11.1,> 50 µM,9.64,39.3,2.17,14.9 µM,8.3,26.2 µM,10.1,26.3 µM
CCOC(=O)Oc1c(OC)cc(C(=O)c2ccc(OC)c(O)c2OC)cc1OC,0.489,> 100 µM,2.29 µM,> 100 µM,3.13 µM,22.8 µM,> 100,> 100 µM,0.288,1.01 µM,2.79,> 100 µM,3.31,> 100,3.54,> 100 µM,2.31,> 100 µM,> 100,> 100 µM
CCc1c2c(nc3ccc(OCc4ccc(B(O)O)cc4)cc13)-c1cc3c(c(=O)n1C2)COC(=O)[C@]3(O)CC,0.0247,> 78 µM,< 0.01 µM,0.304 µM,0.286 µM,> 37.7 µM,0.226,,0.076,3.5 µM,< 0.013,> 100 µM,1.37,> 89.5,0.031,0.913 µM,0.398,> 66.1 µM,0.0943,2.06 µM
O=C1C=CC(=O)c2c1ccc1c3ccccc3n(Cc3ccc([N+](=O)[O-])cc3)c21,,> 100 µM,,> 100 µM,,> 100 µM,,> 100 µM,,> 100 µM,,> 100 µM,,> 100,,> 100 µM,,> 100 µM,,> 100 µM
